The values below come from patent US20250136606A1, “MODULATORS OF TRPML, THEIR COMPOSITIONS AND METHODS OF USE” (Caraway Therapeutics, Inc., priority 2021, published 2025).

For one experiment, the target named is TRPML1 (Homo sapiens, UniProt Q9GZU1). In words: Fluorescent TRPML1 assay (Fluo4-AM calcium fluorescence in doxycycline-induced HEK-293 Trex cells). The class given is cell-based. As to the method:
(§1) HEK-293 Trex cells were stably transfected with a construct consisting of the human coding sequence for TRPML1 cloned into the […] plasmid pCDNA5 T/O. Mutations were introduced into the TRPML1 sequence to facilitate expression on the cell surface (Silvia Vergarajauregui, Rosa Puertollano, Traffic. 2006 March; 7(3): 337-353). Briefly, the cells are cultured in 150 mm round tissue culture dishes containing 20 mL of media. The day before the assay the cells are rinsed with DPBS-Ca—Mg and then treated briefly with Trypsin-EDTA. The Trypsin-EDTA is diluted with growth media, and cells are counted. 38×10^6 cells are re-plated into 150 mm round tissue culture dishes in media containing 0.5 ug/mL doxycycline to induce expression of hTRPML1.
(§2) The day of the experiment cells are lifted from the plates as above and collected by centrifugation. The cells are then suspended in dye loading buffer consisting of Ringer's solution supplemented with 0.1% Pluronic Acid and 1 micromolar Fluo4-AM dye. Cells are loaded for ˜60 minutes in the dark with occasional mixing. The cells are collected by centrifugation, the loading media aspirated, and the cells resuspended in 25 mL Ringer's solution and incubated ˜60 minutes in the dark. The cells are again collected by centrifugation, rinsed in Ringer's Solution and resuspended to […] in modified Ringer's solution containing 10 mM calcium.
(§3) Compounds are dissolved to a concentration of 10 millimolar with DMSO. Compound plates are created by dispensing compounds into 384 well black wall clear bottom plates (Greiner 781091). Positive and negative controls are included on each plate. Typically, different amounts of each compound are tested ranging from 100 nanoMoles (20 micromolar final concentration) decreasing in half-log steps to 31 picoMoles (6 nanomolar final concentration). Each concentration is typically tested in triplicate.
(§4) 50 microliters of dye-loaded cells are dispensed into each well of the compound assay plate created above. The fluorescence in each well is then determined with an excitation wavelength of 480 nm and an emission wavelength of 540 nm using either a Molecular Devices SpectraMax multimode plate reader or a Hamamatsu FDSS/uCell plate imager.
(§5) The resulting fluorescence for each well is exported as an ascii file and loaded into our LIMS for analysis. The percent activity of each compound at each concentration is determined by comparison to the positive and negative control wells included in each plate.
(§6) EC50 values were calculated using a non-linear regression of Prism. In the table, “A” indicates an EC50 of less than 100 nM, “B” indicates an EC50 range from 100 nM to 500 nM; “C” indicates an EC50 range from 500 nM to 2 μM; and “D” indicates an EC50 greater than 2 μM.

Another experiment deals with T1, TRPML3 (Homo sapiens, UniProt Q8TDD5).
T1 construct: expressed in transfected cells
T1 sequence (Q8TDD5 1-553): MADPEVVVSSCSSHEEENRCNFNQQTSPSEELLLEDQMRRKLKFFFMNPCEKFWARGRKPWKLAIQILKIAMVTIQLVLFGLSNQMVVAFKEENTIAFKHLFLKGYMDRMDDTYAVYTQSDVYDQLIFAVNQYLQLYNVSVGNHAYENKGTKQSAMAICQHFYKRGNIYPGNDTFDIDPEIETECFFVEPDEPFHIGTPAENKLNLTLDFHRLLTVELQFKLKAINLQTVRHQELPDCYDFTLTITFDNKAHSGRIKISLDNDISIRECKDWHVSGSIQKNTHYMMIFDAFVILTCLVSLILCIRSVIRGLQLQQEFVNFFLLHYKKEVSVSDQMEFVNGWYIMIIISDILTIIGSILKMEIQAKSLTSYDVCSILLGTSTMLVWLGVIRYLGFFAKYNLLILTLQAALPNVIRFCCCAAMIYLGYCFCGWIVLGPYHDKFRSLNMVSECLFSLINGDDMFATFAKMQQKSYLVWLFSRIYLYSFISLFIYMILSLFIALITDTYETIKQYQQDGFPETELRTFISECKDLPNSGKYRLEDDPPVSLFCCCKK
Description: Fluorescent TRPML3 assay (performed as for TRPML1, substituting the TRPML3 subtype). The class given is cell-based. How it is done:
as §1, §2, §3, §4, §5
TRPML2 and TRPML3 Assays Assays for TRPML2 and TRPML3 were performed as above for TRPML1, by substituting the appropriate TRPML2 or TRPML3 subtype for the TRPML1.
as §6

Structures are written as SMILES. Read-outs that look alike come from different tables or passages of the source. Where only a bound is given, the exact number is not on record here.

Chain of TRPML1 (Q9GZU1 whole entry L15A/L16A/L577A/L578A, form open): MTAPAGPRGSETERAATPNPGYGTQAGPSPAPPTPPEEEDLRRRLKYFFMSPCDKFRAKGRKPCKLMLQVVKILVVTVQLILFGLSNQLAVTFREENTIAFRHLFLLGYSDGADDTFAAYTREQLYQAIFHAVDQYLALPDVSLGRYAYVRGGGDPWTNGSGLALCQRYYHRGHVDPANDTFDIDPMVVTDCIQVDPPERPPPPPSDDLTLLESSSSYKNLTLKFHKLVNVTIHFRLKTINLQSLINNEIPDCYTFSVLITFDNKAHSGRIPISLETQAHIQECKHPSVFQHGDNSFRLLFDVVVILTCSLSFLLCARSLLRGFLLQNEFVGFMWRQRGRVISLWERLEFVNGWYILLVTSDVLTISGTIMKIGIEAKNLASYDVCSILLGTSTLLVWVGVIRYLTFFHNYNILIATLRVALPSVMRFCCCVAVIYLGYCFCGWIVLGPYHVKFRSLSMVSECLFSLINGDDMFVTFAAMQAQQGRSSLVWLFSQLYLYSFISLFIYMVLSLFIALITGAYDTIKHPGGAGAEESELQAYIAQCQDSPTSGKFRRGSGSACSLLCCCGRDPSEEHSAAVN

By EC50 is commonly meant the concentration giving half of the maximal effect. For the compound `CC(C)(C)OC(=O)N1CCN(c2ncnc3c2c(-c2ccccc2F)cn3-c2cc(C#N)ccn2)CC12CC2` [Compound 392, tert-butyl 7-(7-(4-cyanopyridin-2-yl)-5-(2-fluorophenyl)-7H-pyrrolo[2,3-d]pyrimidin-4-yl)-4,7-diazaspiro[2.5]octane-4-carboxylate], the EC50 was 100 to 500 nM on TRPML1 (fluorescent calcium assay) and less than 100 nM at TRPML3 (fluorescent calcium assay).
The matching figures for `C[C@@H]1CN(C(=O)OC(C)(C)C)CCN1c1ncnc2c1c(C1CC1)cn2-c1cc(C#N)ccn1` [Compound 393, tert-butyl (R)-4-(7-(4-cyanopyridin-2-yl)-5-cyclopropyl-7H-pyrrolo [2,3-d]pyrimidin-4-yl)-3-methylpiperazine-1-carboxylate]: less than 100 nM and less than 100 nM.
The matching figures for `C[C@@H]1CN(c2ncnc3c2c(C2CC2)cn3-c2cc(C#N)ccn2)[C@@H](C)CN1C(=O)OC(C)(C)C` [Compound 394, tert-butyl (2R,5S)-4-(7-(4-cyanopyridin-2-yl)-5-cyclopropyl-7H-pyrrolo[2,3-d]pyrimidin-4-yl)-2,5-dimethylpiperazine-1-carboxylate]: less than 100 nM and less than 100 nM.
As to `CC(C)(C)OC(=O)N1CCN(c2ncnc3c2c(C2CC2)cn3-c2cc(C#N)ccn2)CC1(C)C` [Compound 395, tert-butyl 4-(7-(4-cyanopyridin-2-yl)-5-cyclopropyl-7H-pyrrolo[2,3-d]pyrimidin-4-yl)-2,2-dimethylpiperazine-1-carboxylate], the EC50 on TRPML1 (fluorescent calcium assay) and on TRPML3 (fluorescent calcium assay) was less than 100 nM each time.
As to `CC(C)(C)OC(=O)N1CCN(c2ncnc3c2c(C2CC2)cn3-c2cc(C#N)ccn2)CC12CC2` [Compound 396, tert-butyl 7-(7-(4-cyanopyridin-2-yl)-5-cyclopropyl-7H-pyrrolo[2,3-d]pyrimidin-4-yl)-4,7-diazaspiro[2.5]octane-4-carboxylate], the EC50 is 100 to 500 nM on TRPML1 (fluorescent calcium assay) and less than 100 nM at TRPML3 (fluorescent calcium assay).
The matching figures for `C[C@H]1CN(C(=O)OC(C)(C)C)CCN1c1ncnc2c1c(C1CC1)cn2-c1ncc(C#N)s1` [Compound 397, tert-butyl (S)-4-(7-(5-cyanothiazol-2-yl)-5-cyclopropyl-7H-pyrrolo[2,3-d]pyrimidin-4-yl)-3-methylpiperazine-1-carboxylate]: more than 2000 nM and 100 to 500 nM.
The like results for `CC(C)C(=O)N1CCN(c2nccc3c2c(-c2ccccc2F)cn3-c2cc(C#N)ccn2)[C@@H](C)C1` [Compound 450, (S)-2-(3-(2-fluorophenyl)-4-(4-isobutyryl-2-methylpiperazin-1-yl)-1H-pyrrolo[3,2-c]pyridin-1-yl)isonicotinonitrile] were, in that order, less than 100 nM and 100 to 500 nM.
The like results for `CC(C)(C)OC(=O)N1CCN(c2ncnc3c2c(-c2ccccc2F)cn3-c2nccc(C#N)n2)CC1` [Compound 459] were, in that order, less than 100 nM and less than 100 nM.
In the case of `CC(C)(C)OC(=O)N1CC2(C1)CN(c1ncnc3c1c(C1CC1)cn3-c1cc(Cl)cc(Cl)c1)C2` [Compound 464, tert-butyl 6-(5-cyclopropyl-7-(3,5-dichlorophenyl)-7H-pyrrolo[2,3-d]pyrimidin-4-yl)-2,6-diazaspiro[3.3]heptane-2-carboxylate], the EC50 lay within 500 to 2000 nM at TRPML1 (fluorescent calcium assay) and 100 to 500 nM on TRPML3 (fluorescent calcium assay).
The like results for `C[C@@H]1CN(C(=O)OC(C)(C)C)CCN1c1ncnc2c1c(C1CCOCC1)cn2-c1cc(F)cc(F)c1` [Compound 467, tert-butyl (R)-4-(7-(3,5-difluorophenyl)-5-(tetrahydro-2H-pyran-4-yl)-7H-pyrrolo[2,3-d]pyrimidin-4-yl)-3-methylpiperazine-1-carboxylate] were, in that order, more than 2000 nM and 500 to 2000 nM.
Consider `C[C@H]1CN(C(=O)OC(C)(C)C)CCN1c1ncnc2c1c(C1CCOCC1)cn2-c1cccc(F)c1` [Compound 470, tert-butyl (S)-4-(7-(3-fluorophenyl)-5-(tetrahydro-2H-pyran-4-yl)-7H-pyrrolo[2,3-d]pyrimidin-4-yl)-3-methylpiperazine-1-carboxylate], for which the EC50 at TRPML1 (fluorescent calcium assay) and at TRPML3 (fluorescent calcium assay) was 500 to 2000 nM in each case.
For `C[C@@H]1CN(c2ncnc3c2c(OC2CCC2)cn3-c2cc(C#N)ccn2)[C@@H](C)CN1C(=O)OC(C)(C)C` [Compound 508, tert-butyl (2R,5S)-4-(7-(4-cyanopyridin-2-yl)-5-cyclobutoxy-7H-pyrrolo[2,3-d]pyrimidin-4-yl)-2,5-dimethylpiperazine-1-carboxylate], the EC50 on TRPML1 and on TRPML3 was less than 100 nM throughout.
In the case of `C[C@@H]1CN(c2ncnc3c2c(C(F)(F)F)cn3-c2cc(C#N)ccn2)[C@@H](C)CN1C(=O)OC1CC1` [Compound 515, cyclopropyl (2R,5S)-4-(7-(4-cyanopyridin-2-yl)-5-(trifluoromethyl)-7H-pyrrolo[2,3-d]pyrimidin-4-yl)-2,5-dimethylpiperazine-1-carboxylate], the EC50 at TRPML1 and at TRPML3 was less than 100 nM throughout.
Regarding `Cc1c(C(F)(F)F)c2c(N3C[C@@H](C)N(C(=O)OC(C)(C)C)C[C@@H]3C)ncnc2n1-c1cc(C#N)ccn1` [Compound 531, tert-butyl (2R,5S)-4-(7-(4-cyanopyridin-2-yl)-6-methyl-5-(trifluoromethyl)-7H-pyrrolo[2,3-d]pyrimidin-4-yl)-2,5-dimethylpiperazine-1-carboxylate], the half-maximal effective concentration (EC50) at TRPML1 and at TRPML3 was 100 to 500 nM throughout.
For `C[C@@H]1CN(c2ncnc3c2c(C(F)F)cn3-c2cc(F)cc(F)c2)[C@@H](C)CN1C(=O)OC1(C)CC1` [Compound 607, 1-methylcyclopropyl (2R,5S)-4-(5-(difluoromethyl)-7-(3,5-difluorophenyl)-7H-pyrrolo[2,3-d]pyrimidin-4-yl)-2,5-dimethylpiperazine-1-carboxylate], the EC50 at TRPML1 was in the range of 100 to 500 nM; at TRPML3, 500 to 2000 nM.
As to `C[C@@H]1CN(c2ncnc3c2c(C(F)F)cn3-c2cc(F)ccn2)[C@@H](C)CN1C(=O)OC1(C)CC1` [Compound 611, 1-methylcyclopropyl (2R,5S)-4-(5-(difluoromethyl)-7-(4-fluoropyridin-2-yl)-7H-pyrrolo[2,3-d]pyrimidin-4-yl)-2,5-dimethylpiperazine-1-carboxylate], the EC50 at TRPML1 and on TRPML3 was 100 to 500 nM in each case.
Regarding `C[C@@H]1CN(c2ncnc3c2c(C(F)F)cn3-c2cc(C#N)ccn2)[C@@H](C)CN1C(=O)OC1(C)CC1` [Compound 613, 1-methylcyclopropyl (2R,5S)-4-(7-(4-cyanopyridin-2-yl)-5-(difluoromethyl)-7H-pyrrolo[2,3-d]pyrimidin-4-yl)-2,5-dimethylpiperazine-1-carboxylate], the EC50 on TRPML1 and at TRPML3 was less than 100 nM in each case.
Take `C[C@@H]1CN(c2ncnc3c2c(C(F)(F)F)cn3C2CCCC2)[C@@H](C)CN1C(=O)OC(C)(C)C` [Compound 626, tert-butyl (2R,5S)-4-(7-cyclopentyl-5-(trifluoromethyl)-7H-pyrrolo[2,3-d]pyrimidin-4-yl)-2,5-dimethylpiperazine-1-carboxylate]: the values for the EC50 on TRPML1 and on TRPML3 were less than 100 nM and 500 to 2000 nM, respectively.
The matching figures for `C[C@@H]1CN(c2ncnc3c2c(C(F)F)cn3C2CCCC2)[C@@H](C)CN1C(=O)OC(C)(C)C` [Compound 628, tert-butyl (2R,5S)-4-(7-cyclopentyl-5-(difluoromethyl)-7H-pyrrolo[2,3-d]pyrimidin-4-yl)-2,5-dimethylpiperazine-1-carboxylate]: 500 to 2000 nM and 500 to 2000 nM.
